Source: US20190233884A1 (University of Southern California, priority 2016, published 2019)

Test system: patients with refractory metastatic colorectal cancer (mCRC)
Experiment: PFS, OS and disease control in the training (evaluation) cohort of refractory mCRC patients receiving TAS-102 (n=52, Japan), by baseline characteristics, SNP genotype and toxicity
Format: in vivo, human
Conditions: for PFS HR (95% CI) ‡ / OS HR (95% CI)‡: multivariable; for HR for OS / HR for PFS / Disease Control Rate PD / Disease Control Rate SD / Overall Survival Median, months (95% CI) / Progression-free Survival Median, months (95% CI) / Overall Survival HR (95% CI) multivariate / Overall Survival HR (95% CI) univariate / Progression-free Survival HR (95% CI) multivariate / Progression-free Survival HR (95% CI) univariate / OS / PFS: training cohort
Method: All patients underwent the treatment in salvage-line setting. […]
(§1) Genomic DNA was extracted from peripheral whole blood in patients of all cohorts using the QIAmp Kit (Qiagen, Valencia, Calif., USA) according to the manufacturer's protocol (www.qiagen.com). The candidate SNPs were genotyped using PCR-based direct DNA sequence analysis by ABI 3100A Capillary Genetic Analyzer and Sequencing Scanner v1.0 (Applied Biosystems). Amplification of extracted DNA was carried out using both forward and reverse primers for each gene polymorphism as shown in Table 1. […] The investigators analyzing SNPs were blinded to the clinical data of the study patients.
The primary endpoint in this study was progression-free survival (PFS), and the secondary endpoints were overall survival (OS) and disease control rate (DCR). PFS was calculated from the date of starting treatment to the first observation of disease progression or death from any cause. If a patient had no disease progression or death, PFS was censored at the date of last follow up. OS was calculated from the date of starting treatment until the date of death from any cause or the date of the last follow-up, at which point OS was censored. The disease control rate (DCR) was defined as the proportion of patients who achieved a stable disease (SD) or […] according to RECISTv1.1. Chi-square test was used to examine the difference in baseline patient characteristics among the three cohorts. Allelic distribution of all SNPs by ethnicity for deviation from Hardy-Weinberg equilibrium and the allelic frequencies of SNPs were tested using the Chi-square tests with one degree of freedom. The associations between candidate SNPs and disease control, and toxicities were examined using contingency tables and Fisher's exact test. The associations of SNPs with PFS and OS were analysed using Kaplan-Meier curves and the log-rank test. Because the true mode of inheritance of candidate SNPs was not established yet, a codominant or dominant genetic model if appropriate was considered.
All patients underwent the treatment in salvage-line setting. […] In all patients, adverse events were graded according to the Common Terminology Criteria for Adverse Events, version 4.0. […]
as §1, with “tested” for “genotyped”, “Biosystems).” for “Biosystems). Amplification of extracted DNA was carried out using both forward and reverse primers for each gene polymorphism as shown in Table 1.”, “data.” for “data of the study patients.”
The primary endpoint in this study was progression-free survival (PFS), and the secondary endpoints were overall survival (OS) and disease control rate (DCR).

[1] = p21 rs1801270 Any C vs A/A, univariate
[2] = p21 rs1801270 C/C vs A/A, univariate
[3] = p53 rs1042522 Any G vs C/C, univariate
[4] = p53 rs1042522 C/G vs C/C, univariate
[5] = p53 rs1042522 G/G vs C/C, univariate
[6] = MATE1/OCT2 combination Good vs Poor, univariate
[7] = MATE1/OCT2 combination, multivariable adjusted for liver metastases and adjuvant history
[8] = MATE1 rs2289669/OCT2 rs316019 combination, Good category
[9] = MATE1 rs2289669/OCT2 rs316019 combination, Poor category
[10] = MATE1 rs2289669 G/A vs G/G, univariate
[11] = OCT2 rs316019 C/A and A/A combined vs C/C

Substance: Trifluridine/tipiracil [TAS-102]
- PFS HR (95% CI) ‡ (p21 rs1801270 Any C vs A/A): 0.74 (0.37, 1.49)
- OS HR (95% CI)† [1]: 0.64 (0.27, 1.56)
- PFS HR (95% CI) † [1]: 0.88 (0.44, 1.74)
- OS median, months (95% CI) (p21 rs1801270 C/C): 6.3 (3.1, 10.7) months
- PFS median, months (95% CI) (p21 rs1801270 C/C): 2.7 (1.6, 4.6) months
- OS HR (95% CI)‡ (p21 rs1801270 C/C vs A/A): 0.72 (0.24, 2.15)
- PFS HR (95% CI) ‡ (p21 rs1801270 C/C vs A/A): 0.77 (0.33, 1.79)
- OS HR (95% CI)† [2]: 0.85 (0.29, 2.48)
- PFS HR (95% CI) † [2]: 0.97 (0.43, 2.17)
- OS median, months (95% CI) (p53 rs1042522 Any G): 7.2 (5.4, 15.6+) months
- PFS median, months (95% CI) (p53 rs1042522 Any G): 3.0 (2.1, 3.4) months
- OS HR (95% CI)‡ (p53 rs1042522 Any G vs C/C): 1.28 (0.52, 3.19)
- PFS HR (95% CI) ‡ (p53 rs1042522 Any G vs C/C): 1.10 (0.58, 2.09)
- OS HR (95% CI)† [3]: 1.15 (0.47, 2.81)
- PFS HR (95% CI) † [3]: 0.89 (0.48, 1.65)
- OS median, months (95% CI) (p53 rs1042522 C/C): 8.7 (5.3, 14.8+) months
- PFS median, months (95% CI) (p53 rs1042522 C/C): 2.5 (1.6, 4.4) months
- OS median, months (95% CI) (p53 rs1042522 C/G): 6.3 (4.4, 12.4+) months
- PFS median, months (95% CI) (p53 rs1042522 C/G): 3.0 (1.9, 3.5) months
- OS HR (95% CI)‡ (p53 rs1042522 C/G vs C/C): 1.61 (0.64, 4.06)
- PFS HR (95% CI) ‡ (p53 rs1042522 C/G vs C/C): 1.12 (0.57, 2.21)
- OS HR (95% CI)† [4]: 1.35 (0.55, 3.35)
- PFS HR (95% CI) † [4]: 0.86 (0.45, 1.65)
- PFS median, months (95% CI) (p53 rs1042522 G/G): 2.3 (0.7, 4.6+) months
- OS HR (95% CI)‡ (p53 rs1042522 G/G vs C/C): 0.38 (0.05, 3.11)
- PFS HR (95% CI) ‡ (p53 rs1042522 G/G vs C/C): 1.04 (0.38, 2.86)
- OS HR (95% CI)† [5]: 0.41 (0.05, 3.29)
- PFS HR (95% CI) † [5]: 1.02 (0.37, 2.77)
- HR for OS [6]: 0.39
- HR for PFS [6]: 0.44
- HR for OS [7]: 0.41
- HR for PFS [7]: 0.45
- Disease Control Rate PD (MATE1_OCT019 good): 20 (59%)
- Disease Control Rate SD (MATE1_OCT019 good): 14 (41%)
- Overall Survival Median, months (95% CI) (MATE1_OCT019 good): 8.3 (6.3, 15.6) months
- Progression-free Survival Median, months (95% CI) (MATE1_OCT019 good): 3.4 (2.1, 4.1) months
- Overall Survival HR (95% CI) multivariate (MATE1_OCT019 good vs poor): 0.41 (0.16, 1.04)
- Overall Survival HR (95% CI) univariate (MATE1_OCT019 good vs poor): 0.39 (0.15, 0.98)
- Progression-free Survival HR (95% CI) multivariate (MATE1_OCT019 good vs poor): 0.45 (0.23, 0.88)
- Progression-free Survival HR (95% CI) univariate (MATE1_OCT019 good vs poor): 0.44 (0.22, 0.85)
- Disease Control Rate PD (MATE1_OCT019 poor): 11 (92%)
- Disease Control Rate SD (MATE1_OCT019 poor): 1 (8%)
- Overall Survival Median, months (95% CI) (MATE1_OCT019 poor): 4.9 (2.8, 10.7) months
- Progression-free Survival Median, months (95% CI) (MATE1_OCT019 poor): 2.3 (1.2, 2.9) months
- OS [8]: 8.3 months
- PFS [8]: 3.4 months
- OS [9]: 4.9 months
- PFS [9]: 2.3 months
- Disease Control Rate PD (MATE1 rs2289669 A/A): 8 (80%)
- Disease Control Rate SD (MATE1 rs2289669 A/A): 2 (20%)
- Overall Survival Median, months (95% CI) (MATE1 rs2289669 A/A): 4.9 (2.8, 6.5+) months
- Progression-free Survival Median, months (95% CI) (MATE1 rs2289669 A/A): 2.3 (1.2, 3.3) months
- Overall Survival HR (95% CI) multivariate (MATE1 rs2289669 A/A vs G/G): 1.98 (0.56, 6.99)
- Overall Survival HR (95% CI) univariate (MATE1 rs2289669 A/A vs G/G): 2.40 (0.59, 8.37)
- Progression-free Survival HR (95% CI) multivariate (MATE1 rs2289669 A/A vs G/G): 0.92 (0.38, 2.24)
- Progression-free Survival HR (95% CI) univariate (MATE1 rs2289669 A/A vs G/G): 0.94 (0.40, 2.18)
- Disease Control Rate PD (MATE1 rs2289669 Any A): 22 (61%)
- Disease Control Rate SD (MATE1 rs2289669 Any A): 14 (39%)
- Overall Survival Median, months (95% CI) (MATE1 rs2289669 Any A): 8.3 (5.3, 15.6+) months
- Progression-free Survival Median, months (95% CI) (MATE1 rs2289669 Any A): 3.0 (2.1, 3.7) months
- Overall Survival HR (95% CI) multivariate (MATE1 rs2289669 Any A vs G/G): 0.93 (0.33, 2.59)
- Overall Survival HR (95% CI) univariate (MATE1 rs2289669 Any A vs G/G): 1.03 (0.37, 2.83)
- Progression-free Survival HR (95% CI) multivariate (MATE1 rs2289669 Any A vs G/G): 0.53 (0.25, 1.13)
- Progression-free Survival HR (95% CI) univariate (MATE1 rs2289669 Any A vs G/G): 0.56 (0.28, 1.13)
- Disease Control Rate PD (MATE1 rs2289669 G/A): 14 (54%)
- Disease Control Rate SD (MATE1 rs2289669 G/A): 12 (45%)
- OS (MATE1 rs2289669 G/A): 12.4 months
- Overall Survival Median, months (95% CI) (MATE1 rs2289669 G/A): 12.4 (5.7, 15.6+) months
- PFS (MATE1 rs2289669 G/A): 3.4 months
- Progression-free Survival Median, months (95% CI) (MATE1 rs2289669 G/A): 3.4 (2.1, 4.4) months
- Overall Survival HR (95% CI) multivariate (MATE1 rs2289669 G/A vs G/G): 0.59 (0.23, 2.11)
- Overall Survival HR (95% CI) univariate (MATE1 rs2289669 G/A vs G/G): 0.75 (0.26, 2.28)
- Progression-free Survival HR (95% CI) multivariate (MATE1 rs2289669 G/A vs G/G): 0.41 (0.18, 0.94)
- Progression-free Survival HR (95% CI) univariate (MATE1 rs2289669 G/A vs G/G): 0.44 (0.20, 0.93)
- HR for OS [10]: 0.76
- HR for PFS [10]: 0.44
- HR for PFS (MATE1 rs2289669 G/A, multivariate adjusted for liver metastases and adjuvant history): 0.41
- Disease Control Rate PD (MATE1 rs2289669 G/G): 9 (90%)
- Disease Control Rate SD (MATE1 rs2289669 G/G): 1 (10%)
- OS (MATE1 rs2289669 G/G): 8.1 months
- Overall Survival Median, months (95% CI) (MATE1 rs2289669 G/G): 8.1 (5.4, 10.7+) months
- PFS (MATE1 rs2289669 G/G): 2.0 months
- Progression-free Survival Median, months (95% CI) (MATE1 rs2289669 G/G): 2.0 (1.4, 3.4) months
- Disease Control Rate PD (OCT2 rs316019 A/A): 1 (25%)
- Disease Control Rate SD (OCT2 rs316019 A/A): 3 (75%)
- Disease Control Rate PD (OCT2 rs316019 C/A): 6 (67%)
- Disease Control Rate SD (OCT2 rs316019 C/A): 3 (33%)
- Progression-free Survival Median, months (95% CI) (OCT2 rs316019 C/A and A/A combined): 3.0 (1.2, 6.0+) months
- Overall Survival HR (95% CI) multivariate [11]: 1.74 (0.55, 5.51)
- Overall Survival HR (95% CI) univariate [11]: 1.04 (0.38, 2.89)
- Progression-free Survival HR (95% CI) multivariate [11]: 1.32 (0.58, 3.02)
